Read-outs that look alike come from different tables or passages of the source.
B1: Chordin: known inhibitor of BMP signaling (R&D Systems) (protein, UniProt Q9H2X0 27-955, looked up)
Chordin: AGPEPPVLPIRSEKEPLPVRGAAGCTFGGKVYALDETWHPDLGEPFGVMRCVLCACEAPQWGRRTRGPGRVSCKNIKPECPTPACGQPRQLPGHCCQTCPQERSSSERQPSGLSFEYPRDPEHRSYSDRGEPGAEERARGDGHTDFVALLTGPRSQAVARARVSLLRSSLRFSISYRRLDRPTRIRFSDSNGSVLFEHPAAPTQDGLVCGVWRAVPRLSLRLLRAEQLHVALVTLTHPSGEVWGPLIRHRALAAETFSAILTLEGPPQQGVGGITLLTLSDTEDSLHFLLLFRGLLEPRSGGLTQVPLRLQILHQGQLLRELQANVSAQEPGFAEVLPNLTVQEMDWLVLGELQMALEWAGRPGLRISGHIAARKSCDVLQSVLCGADALIPVQTGAAGSASLTLLGNGSLIYQVQVVGTSSEVVAMTLETKPQRRDQRTVLCHMAGLQPGGHTAVGICPGLGARGAHMLLQNELFLNVGTKDFPDGELRGHVAALPYCGHSARHDTLPVPLAGALVLPPVKSQAAGHAWLSLDTHCHLHYEVLLAGLGGSEQGTVTAHLLGPPGTPGPRRLLKGFYGSEAQGVVKDLEPELLRHLAKGMASLMITTKGSPRGELRGQVHIANQCEVGGLRLEAAGAEGVRALGAPDTASAAPPVVPGLPALAPAKPGGPGRPRDPNTCFFEGQQRPHGARWAPNYDPLCSLCTCQRRTVICDPVVCPPPSCPHPVQAPDQCCPVCPEKQDVRDLPGLPRSRDPGEGCYFDGDRSWRAAGTRWHPVVPPFGLIKCAVCTCKGGTGEVHCEKVQCPRLACAQPVRVNPTDCCKQCPVGSGAHPQLGDPMQADGPRGCRFAGQWFPESQSWHPSVPPFGEMSCITCRCGAGVPHCERDDCSLPLSCGSGKESRCCSRCTAHRRPAPETRTDPELEKEAEGS

Legend:
[1] = system: human embryonic stem cell line H1; details: end of stage 5, real-time PCR
Method: (§1) Cells of the human embryonic stem cell line H1, at passage 44 were cultured on […]™ coated dishes (1:30 dilution) and exposed to DMEM/F12 medium supplemented with 0.5% FBS, and 100 ng/ml Activin-A (R&D Systems, MN) plus 20 ng/ml WNT-3a (Catalog #1324-WN-002, R&D Systems, MN), for two days followed by treatment with DMEM/F12 media supplemented with 2% FBS and 100 ng/ml Activin-A (AA) for an additional two days. Next the cultures were treated with DMEM/F12+2% FBS+20 ng/ml FGF7+0.25 μm Cyclopamine-KAAD (#239804, Calbiochem, CA) for three days followed by four day incubation in DMEM/F12+1% B27 (Invitrogen, CA)+20 ng/ml FGF7+0.25 μm Cyclopamine-KAAD+2 μm Retinoic acid (RA) (Sigma, MO).
Next, cells were cultured in DMEM/F12+1% B27 (Invitrogen, CA)+50 ng/ml Exendin-4 (Sigma, MO)+1 μm DAPT (Calbiochem, CA) for six days followed by additional three days incubation in DMEM/F12+1% B27 (Invitrogen, CA)+50 ng/ml Exendin-4 (Sigma, MO)+50 ng/ml IGF (Peprotech, N.J.)+50 ng/ml HGF (R&D Systems, MN). Some of the cultures were treated with 1 μM of TGF-B receptor I kinase inhibitor (2-(3-(6-Methylpyridin-2-yl)-1H-pyrazol-4-yl)-1,5-naphthyridine) (an inhibitor of activin receptor-like kinase 5, #616452, Calbiochem, CA) at stage 4, stage 5, or stages 4 and 5.

[2] = system: human embryonic stem cell line H1; details: 1-10 μm at stages 4 and 5; end of stages 4 to 5; compared to controls (standard treatment)
Method: Next the cultures were treated with DMEM/F12+2% FBS+20 ng/ml FGF7+0.25 μm Cyclopamine-KAAD (#239804, Calbiochem, CA) for three days followed by four day incubation in DMEM/F12+1% B27 (Invitrogen, CA)+20 ng/ml FGF7+0.25 μm Cyclopamine-KAAD+2 μm Retinoic acid (RA) (Sigma, MO).
Next, cells were cultured in DMEM/F12+1% B27 (Invitrogen, CA)+50 ng/ml Exendin-4 (Sigma, MO)+1 μm DAPT (Calbiochem, CA) for six days followed by additional three days incubation in DMEM/F12+1% B27 (Invitrogen, CA)+50 ng/ml Exendin-4 (Sigma, MO)+50 ng/ml IGF (Peprotech, N.J.)+50 ng/ml HGF (R&D Systems, MN).

[3] = system: human embryonic stem cell line H1; details: end of stage 5, real-time PCR; remark: listed apart in the source
Method: as §1, with “51” for “44”
Next, the cells were cultured in DMEM/F12+1% B27 (Invitrogen, CA)+50 ng/ml Exendin-4 (Sigma, MO)+1 μm DAPT (Calbiochem, CA) for six days followed by additional three days incubation in DMEM/F12+1% B27 (Invitrogen, CA)+50 ng/ml Exendin-4 (Sigma, MO)+50 ng/ml IGF (Peprotech, N.J.)+50 ng/ml HGF (R&D Systems, MN). Some of the cultures were treated with 1 μM of the following compounds at either stage 3, stage 4, or stages 3+4: MEK/MAPK inhibitor (2′-Amino-3′-methoxyflavone) (PD98059, Calbiochem, CA), RAF kinase inhibitor (5-Iodo-3-R3,5-dibromo-4-hydroxyphenyl)methylenel-2-indolinone) (#553008, Calbiochem, CA), SMAD3 inhibitor (6,7-Dimethyl-2-((2E)-3-(1-methyl-2-phenyl-1Hpyrrolo[2,3-b]pyridin-3-yl-prop-2-enoyl))-1,2,3,4-tetrahydroisoquinoline) (#566405, Calbiochem, CA), AKT inhibitor (1L6-Hydroxymethyl-chiroinositol-2-(R)-2-O-methyl-3-O-octadecyl-sn-glycerocarbonate) (#124005, Calbiochem, CA), MEK inhibitor (#444937 Calbiochem, CA), and TGF-B receptor I inhibitor (2-(3-(6-Methylpyridin-2-yl)-1H-pyrazol-4-yl)-1,5-naphthyridine) (inhibits activin receptor-like kinase 5, #616452, Calbiochem, CA).

[4] = system: human embryonic stem cell line H1; test: FACS analysis of insulin and synaptophysin in stage 6 cultures, Chordin instead of Noggin (Example 15); type: cell-based; details: 50-100 ng/ml at stages 3-4 instead of Noggin, compared with Noggin
Method: Cells were dissociated into single cells from monolayer cultures using TrypLE Express (Invitrogen, Carlsbad, Calif.) and washed in cold PBS. For fixation, cells were resuspended in 200-300 μl Cytofix/Cytoperm Buffer (BD 554722, BD, Ca) and incubated for 30 min at 4° C. Cells were washed two times in 1 ml Perm/Wash Buffer Solution (BD 554723) and resuspended in 100 μl staining/blocking solution containing 2% normal goat serum in Perm/Wash buffer. For flow cytometric analysis, cells were stained with the following primary antibodies: Anti-Insulin (Rabbit mAb, Cell Signaling No. C27C9; 1:100 dilution), Anti-Glucagon (Mouse Mab, Sigma No. G2654, 1:100); Anti-Synaptophysin (Rabbit Polyclonal antibody, DakoCytomation No A0010, 1:50); Cells were incubated for 30 min at 4° C. followed by two washes in Perm/Wash buffer and further 30 min incubation in appropriate secondary antibodies as follows: Goat anti-Rabbit Alexa 647 (Invitrogen No. A21246) or Goat anti-Mouse 647 (Invitrogen No. A21235); Goat anti-Rabbit R-PE (BioSource No. ALI4407). All secondary antibodies were used at 1:200 dilution. Cells were washed at least once in Perm/Wash buffer and analyzed using BD FACSArray. A least 10,000 events were acquired for analysis. Controls included undifferentiated H1 cells and b-TC (ATCC, VA) cell line. FIGS. 20A-20C show the percentage insulin positive and synapthophysin+ cells in stage 6 cultures. […]

[5] = 1 μM added at stage 4 or stages 4 and 5
[6] = 1 μM added at stage 4 or stages 3 and 4

Molecule | expression of PDX-1 [1, 5] | expression of insulin, glucagon, NeuroD, and NKX2.2 [1, 5] | expression of endocrine markers ([1]; 1 μM added only at stage 5) | expression of insulin, glucagon, PDX-1 and NeuroD [2] | expression of PDX-1 [3, 6] | expression of insulin, glucagon, NeuroD, and NKX2.2 [3, 6] | expression of endocrine markers ([3]; 1 μM added only at stage 3) | expression of insulin and synaptophysin by FACS [4]
Cc1cccc(-c2n[nH]cc2-c2ccc3ncccc3n2)n1 [ALK5 inhibitor II, 2-(3-(6-Methylpyridin-2-yl)-1H-pyrazol-4-yl)-1,5-naphthyridine] | marginally affecting | significantly enhanced | marginally upregulated | significantly enhanced | marginally affecting | significantly enhanced | marginally upregulated | –
B1 | – | – | – | – | – | – | – | very similar expression
